PubChem BioAssay (NCI)
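GI50 marks 50% less growth. TGI denotes the concentration required for complete inhibition of growth.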

How the values were obtained:
Assay in all cases: growth of human tumour cells (NCI), 384-well format
SW-620 colon = tested on: SW-620 colon
A498 renal = tested on: A498 renal
786-0 renal = tested on: 786-0 renal
DU-145 prostate = tested on: DU-145 prostate
MDA-MB-231 breast = tested on: MDA-MB-231 breast
T-47D breast = tested on: T-47D breast
UO-31 renal = tested on: UO-31 renal
NCI-H226 lung = tested on: NCI-H226 lung
MCF7 breast = tested on: MCF7 breast
CCRF-CEM leukemia = tested on: CCRF-CEM leukemia
NCI-H322M lung = tested on: NCI-H322M lung
NCI/ADR-RES ovarian = tested on: NCI/ADR-RES ovarian
HCT-116 colon = tested on: HCT-116 colon
NCI-H23 lung = tested on: NCI-H23 lung
MOLT-4 leukemia = tested on: MOLT-4 leukemia
SR leukemia = tested on: SR leukemia
LOX IMVI melanoma = tested on: LOX IMVI melanoma
IGROV1 ovarian = tested on: IGROV1 ovarian
HCC-2998 colon = tested on: HCC-2998 colon
HOP-62 NSCLC = tested on: HOP-62 NSCLC
SK-OV-3 ovarian = tested on: SK-OV-3 ovarian
MDA-MB-435 melanoma = tested on: MDA-MB-435 melanoma
HOP-92 NSCLC = tested on: HOP-92 NSCLC
KM12 colon = tested on: KM12 colon
EKVX NSCLC = tested on: EKVX NSCLC
HS 578T breast = tested on: HS 578T breast
MDA-MB-468 breast = tested on: MDA-MB-468 breast
SK-MEL-28 melanoma = tested on: SK-MEL-28 melanoma
M14 melanoma = tested on: M14 melanoma
HL-60(TB) leukemia = tested on: HL-60(TB) leukemia
A549 NSCLC = tested on: A549 NSCLC
UACC-257 melanoma = tested on: UACC-257 melanoma
SNB-75 CNS = tested on: SNB-75 CNS
OVCAR-4 ovarian = tested on: OVCAR-4 ovarian
CAKI-1 renal = tested on: CAKI-1 renal
SN12C renal = tested on: SN12C renal
PC-3 prostate = tested on: PC-3 prostate
SNB-19 CNS = tested on: SNB-19 CNS
RXF 393 renal = tested on: RXF 393 renal
UACC-62 melanoma = tested on: UACC-62 melanoma
SF-268 CNS = tested on: SF-268 CNS
OVCAR-8 ovarian = tested on: OVCAR-8 ovarian
HCT-15 colon = tested on: HCT-15 colon
HT29 colon = tested on: HT29 colon
U251 glioblastoma = tested on: U251 glioblastoma
COLO 205 colon = tested on: COLO 205 colon
SF-539 CNS = tested on: SF-539 CNS
RPMI-8226 leukemia = tested on: RPMI-8226 leukemia
MALME-3M melanoma = tested on: MALME-3M melanoma
ACHN renal = tested on: ACHN renal
SF-295 CNS = tested on: SF-295 CNS
K-562 leukemia = tested on: K-562 leukemia
NCI-H522 lung = tested on: NCI-H522 lung
OVCAR-3 ovarian = tested on: OVCAR-3 ovarian
SK-MEL-5 melanoma = tested on: SK-MEL-5 melanoma
BT-549 breast = tested on: BT-549 breast
TK-10 renal = tested on: TK-10 renal
NCI-H460 NSCLC = tested on: NCI-H460 NSCLC

CC/C(=C(/c1ccc(/C=C/C(=O)O)cc1)c1ccc2[nH]ncc2c1)c1ccc(F)cc1Cl
GI50 (SW-620 colon): 18.1 µM
TGI (SW-620 colon): 32.2 µM
GI50 (A498 renal): 10.9 µM
TGI (A498 renal): 22.9 µM
GI50 ([…]-0 renal): 12.7 µM
TGI (786-0 renal): 25.9 µM
GI50 (DU-145 prostate): 15.9 µM
TGI (DU-145 prostate): 29.4 µM
GI50 (MDA-MB-231 breast): 15.1 µM
TGI (MDA-MB-231 breast): 28.4 µM
GI50 (T-47D breast): 11.9 µM
TGI (T-47D breast): 25.2 µM
GI50 (UO-31 renal): 10.1 µM
TGI (UO-31 renal): 21.8 µM
GI50 (NCI-H226 lung): 18.1 µM
TGI (NCI-H226 lung): 32.1 µM
TGI (MCF7 breast): 15.1 µM
GI50 (CCRF-CEM leukemia): 10.5 µM
TGI (CCRF-CEM leukemia): 22.3 µM
GI50 (NCI-H322M lung): 14.2 µM
TGI (NCI-H322M lung): 27.4 µM
GI50 (NCI/ADR-RES ovarian): 14.1 µM
TGI (NCI/ADR-RES ovarian): 27.7 µM
GI50 (HCT-116 colon): 15.3 µM
TGI (HCT-116 colon): 29.4 µM
GI50 (NCI-H23 lung): 14.7 µM
TGI (NCI-H23 lung): 27.9 µM
GI50 (MOLT-4 leukemia): 12.9 µM
TGI (MOLT-4 leukemia): 25.9 µM
GI50 (SR leukemia): 3000 nM
TGI (SR leukemia): 6.35 µM
GI50 (LOX IMVI melanoma): 10.5 µM
TGI (LOX IMVI melanoma): 22.4 µM
GI50 (IGROV1 ovarian): 15.2 µM
TGI (IGROV1 ovarian): 29 µM
GI50 (HCC-2998 colon): 18.3 µM
TGI (HCC-2998 colon): 32.3 µM
GI50 (HOP-62 NSCLC): 9.36 µM
TGI (HOP-62 NSCLC): 21.4 µM
GI50 (SK-OV-3 ovarian): 18 µM
TGI (SK-OV-3 ovarian): 32.5 µM
GI50 (MDA-MB-435 melanoma): 2710 nM
TGI (MDA-MB-435 melanoma): 7.22 µM
GI50 (HOP-92 NSCLC): 14.2 µM
TGI (HOP-92 NSCLC): 27.6 µM
GI50 (KM12 colon): 14.4 µM
TGI (KM12 colon): 27.5 µM
GI50 (EKVX NSCLC): 14.7 µM
TGI (EKVX NSCLC): 28.2 µM
GI50 (HS 578T breast): 15.6 µM
TGI (HS 578T breast): 29 µM
GI50 (MDA-MB-468 breast): 11.5 µM
TGI (MDA-MB-468 breast): 23.8 µM
GI50 (SK-MEL-28 melanoma): 12.5 µM
TGI (SK-MEL-28 melanoma): 26.1 µM
GI50 (M14 melanoma): 7.57 µM
TGI (M14 melanoma): 20.5 µM
GI50 (HL-60(TB) leukemia): 6.03 µM
TGI (HL-60(TB) leukemia): 18.5 µM
GI50 (A549 NSCLC): 10.4 µM
TGI (A549 NSCLC): 22.3 µM
GI50 (UACC-257 melanoma): 15.1 µM
TGI (UACC-257 melanoma): 29 µM
GI50 (SNB-75 CNS): 13.7 µM
TGI (SNB-75 CNS): 26.6 µM
GI50 (OVCAR-4 ovarian): 14.2 µM
TGI (OVCAR-4 ovarian): 28 µM
GI50 (CAKI-1 renal): 16.6 µM
TGI (CAKI-1 renal): 30.4 µM
GI50 (SN12C renal): 17.1 µM
TGI (SN12C renal): 31.6 µM
GI50 (PC-3 prostate): 13.7 µM
TGI (PC-3 prostate): 26.7 µM
GI50 (SNB-19 CNS): 14.4 µM
TGI (SNB-19 CNS): 27.5 µM
GI50 (RXF 393 renal): 8.35 µM
TGI (RXF 393 renal): 21 µM
GI50 (UACC-62 melanoma): 13 µM
TGI (UACC-62 melanoma): 25.8 µM
GI50 (SF-268 CNS): 15.6 µM
TGI (SF-268 CNS): 29 µM
GI50 (OVCAR-8 ovarian): 15.3 µM
TGI (OVCAR-8 ovarian): 28.7 µM
GI50 (HCT-15 colon): 12.4 µM
TGI (HCT-15 colon): 25.2 µM
GI50 (HT29 colon): 16.7 µM
TGI (HT29 colon): 30.5 µM
GI50 (U251 glioblastoma): 11.8 µM
TGI (U251 glioblastoma): 24.2 µM
GI50 (COLO 205 colon): 15.1 µM
TGI (COLO 205 colon): 28.7 µM
GI50 (SF-539 CNS): 14.3 µM
TGI (SF-539 CNS): 27.4 µM
GI50 (RPMI-8226 leukemia): 5.4 µM
TGI (RPMI-8226 leukemia): 16.9 µM
GI50 (MALME-3M melanoma): 14.8 µM
TGI (MALME-3M melanoma): 28 µM
GI50 (ACHN renal): 13.7 µM
TGI (ACHN renal): 26.6 µM
GI50 (SF-295 CNS): 4.65 µM
TGI (SF-295 CNS): 17 µM
GI50 (K-562 leukemia): 14.5 µM
TGI (K-562 leukemia): 29.5 µM
GI50 (NCI-H522 lung): 14.6 µM
TGI (NCI-H522 lung): 27.8 µM
GI50 (OVCAR-3 ovarian): 14.3 µM
TGI (OVCAR-3 ovarian): 27.6 µM
GI50 (SK-MEL-5 melanoma): 12.6 µM
TGI (SK-MEL-5 melanoma): 25.2 µM
GI50 (BT-549 breast): 14.7 µM
TGI (BT-549 breast): 27.9 µM
GI50 (TK-10 renal): 16.3 µM
TGI (TK-10 renal): 31.2 µM
GI50 (NCI-H460 NSCLC): 16.6 µM
TGI (NCI-H460 NSCLC): 30.5 µM
